Measured values from PubChem BioAssay (NCI).
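Assay format: 96-well plates, 48-hour exposure. TGI denotes the concentration required for complete inhibition of growth.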

Columns and labels:
Experiment in all cases: NCI anticancer screen, dose series, 48 h
NCI-H23 lung = system: NCI-H23 lung
RPMI-8226 leukemia = system: RPMI-8226 leukemia
K-562 leukemia = system: K-562 leukemia
CCRF-CEM leukemia = system: CCRF-CEM leukemia
HCT-116 colon = system: HCT-116 colon
HOP-92 NSCLC = system: HOP-92 NSCLC
SF-268 CNS = system: SF-268 CNS
MALME-3M melanoma = system: MALME-3M melanoma
TK-10 renal = system: TK-10 renal
OVCAR-5 ovarian = system: OVCAR-5 ovarian
RXF 393 renal = system: RXF 393 renal
CAKI-1 renal = system: CAKI-1 renal
OVCAR-4 ovarian = system: OVCAR-4 ovarian
HCC-2998 colon = system: HCC-2998 colon
M14 melanoma = system: M14 melanoma
HS 578T breast = system: HS 578T breast
MDA-MB-435 = system: MDA-MB-435
EKVX NSCLC = system: EKVX NSCLC
NCI-H460 lung = system: NCI-H460 lung
IGROV1 ovarian = system: IGROV1 ovarian
BT-549 breast = system: BT-549 breast
UACC-62 melanoma = system: UACC-62 melanoma
SK-MEL-28 melanoma = system: SK-MEL-28 melanoma
SNB-19 CNS = system: SNB-19 CNS
UO-31 renal = system: UO-31 renal
COLO 205 colon = system: COLO 205 colon
SK-MEL-5 melanoma = system: SK-MEL-5 melanoma
A498 renal = system: A498 renal
UACC-257 melanoma = system: UACC-257 melanoma
SW-620 colon = system: SW-620 colon
HOP-62 NSCLC = system: HOP-62 NSCLC
DU-145 prostate = system: DU-145 prostate
HCT-15 colon = system: HCT-15 colon
T-47D breast = system: T-47D breast
NCI/ADR-RES ovarian = system: NCI/ADR-RES ovarian
U251 CNS = system: U251 CNS
SN12C renal = system: SN12C renal
SF-295 CNS = system: SF-295 CNS
MCF7 breast = system: MCF7 breast
NCI-H226 lung = system: NCI-H226 lung
OVCAR-8 ovarian = system: OVCAR-8 ovarian
SF-539 CNS = system: SF-539 CNS
KM12 colon = system: KM12 colon
SNB-75 CNS = system: SNB-75 CNS
LOX IMVI melanoma = system: LOX IMVI melanoma
OVCAR-3 ovarian = system: OVCAR-3 ovarian
ACHN renal = system: ACHN renal
SR leukemia = system: SR leukemia
PC-3 prostate = system: PC-3 prostate
MOLT-4 leukemia = system: MOLT-4 leukemia
SK-OV-3 ovarian = system: SK-OV-3 ovarian
HL-60(TB) leukemia = system: HL-60(TB) leukemia
A549 NSCLC = system: A549 NSCLC
SK-MEL-2 melanoma = system: SK-MEL-2 melanoma
HT29 colon = system: HT29 colon
MDA-N = system: MDA-N
NCI-H522 lung = system: NCI-H522 lung
786-0 renal = system: 786-0 renal
MDA-MB-231 breast = system: MDA-MB-231 breast

## Cn1ccnc1Sc1ccc(/C=N/NC(=O)c2ccccc2[N+](=O)[O-])cc1[N+](=O)[O-]
NCI-H23 lung
  TGI: > 100 µM
RPMI-8226 leukemia
  TGI: > 100 µM
K-562 leukemia
  TGI: > 100 µM
CCRF-CEM leukemia
  TGI: > 100 µM
HCT-116 colon
  TGI: > 100 µM
HOP-92 NSCLC
  TGI: > 100 µM
SF-268 CNS
  TGI: > 100 µM
MALME-3M melanoma
  TGI: > 100 µM
TK-10 renal
  TGI: > 100 µM
OVCAR-5 ovarian
  TGI: > 100 µM
RXF 393 renal
  TGI: > 100 µM
CAKI-1 renal
  TGI: > 100 µM
OVCAR-4 ovarian
  TGI: > 100 µM
HCC-2998 colon
  TGI: 95.6 µM
M14 melanoma
  TGI: > 100 µM
HS 578T breast
  TGI: > 100 µM
MDA-MB-435
  TGI: > 100 µM
EKVX NSCLC
  TGI: > 100 µM
NCI-H460 lung
  TGI: > 100 µM
IGROV1 ovarian
  TGI: > 100 µM
BT-549 breast
  TGI: > 100 µM
UACC-62 melanoma
  TGI: > 100 µM
SK-MEL-28 melanoma
  TGI: > 100 µM
SNB-19 CNS
  TGI: > 100 µM
UO-31 renal
  TGI: > 100 µM
COLO 205 colon
  TGI: > 100 µM
SK-MEL-5 melanoma
  TGI: > 100 µM
A498 renal
  TGI: > 100 µM
UACC-257 melanoma
  TGI: > 100 µM
SW-620 colon
  TGI: > 100 µM
HOP-62 NSCLC
  TGI: > 100 µM
DU-145 prostate
  TGI: > 100 µM
HCT-15 colon
  TGI: > 100 µM
T-47D breast
  TGI: > 100 µM
NCI/ADR-RES ovarian
  TGI: > 100 µM
U251 CNS
  TGI: > 100 µM
SN12C renal
  TGI: > 100 µM
SF-295 CNS
  TGI: > 100 µM
MCF7 breast
  TGI: > 100 µM
NCI-H226 lung
  TGI: > 100 µM
OVCAR-8 ovarian
  TGI: > 100 µM
SF-539 CNS
  TGI: > 100 µM
KM12 colon
  TGI: > 100 µM
SNB-75 CNS
  TGI: > 100 µM
LOX IMVI melanoma
  TGI: > 100 µM
OVCAR-3 ovarian
  TGI: > 100 µM
ACHN renal
  TGI: > 100 µM
SR leukemia
  TGI: > 100 µM
PC-3 prostate
  TGI: > 100 µM
MOLT-4 leukemia
  TGI: > 100 µM
SK-OV-3 ovarian
  TGI: > 100 µM
HL-60(TB) leukemia
  TGI: > 100 µM
A549 NSCLC
  TGI: > 100 µM
SK-MEL-2 melanoma
  TGI: > 100 µM
HT29 colon
  TGI: > 100 µM
MDA-N
  TGI: > 100 µM
NCI-H522 lung
  TGI: > 100 µM
786-0 renal
  TGI: > 100 µM
MDA-MB-231 breast
  TGI: 97.6 µM
